In patent US9326506B2, “Preparation method, agricultural composition and applications of natural brassinolide analogs” (CHENGDU NEWSUN CROPSCIENCE CO., LTD, priority 2012, dated 2016):

Tested on: rice
Assay: Low temperature assay on rice seedlings
Format: in vivo
In short: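 Nine-day-old etiolated rice seedlings (grown on water at 30 °C±2 °C, dark) immersed in brassinolide analogues at 1–0.0001 mg/L or pure water, held at 1–5 °C for 24 hr. Plant height, leaf area, root weight read at 3, 6, 9, 12 days; leaf and tiller number at 12 days.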

CC(C)(O)CC[C@@H](O)[C@](C)(O)[C@H]1CC[C@@]2(O)[C@@H]3CC(=O)[C@@H]4C[C@@H](O)[C@@H](O)C[C@]4(C)[C@H]3CC[C@]12C [BR6]
2: Number of tiller (0.0001 mg/l, 3 °C, 12 days) | Number of tiller (0.0001 mg/l, 4 °C, 12 days) | Number of tiller (0.0001 mg/l, 5 °C, 12 days) | Number of tiller (0.001 mg/l, 3 °C, 12 days) | Number of tiller (0.001 mg/l, 4 °C, 12 days)
10 cm^2: Area of leaf (0.0001 mg/l, 1 °C, 3 days) | Area of leaf (0.001 mg/l, 1 °C, 3 days) | Area of leaf (0.01 mg/l, 1 °C, 3 days)
12.8 cm^2: Area of leaf (0.0001 mg/l, 5 °C, 6 days) | Area of leaf (0.01 mg/l, 2 °C, 9 days)
3.1 g: Weight of root (0.0001 mg/l, 1 °C, 6 days) | Weight of root (0.001 mg/l, 1 °C, 6 days) | Weight of root (0.01 mg/l, 2 °C, 9 days)
11.8 cm^2: Area of leaf (0.001 mg/l, 2 °C, 6 days) | Area of leaf (0.01 mg/l, 2 °C, 6 days)
14 cm^2: Area of leaf (0.0001 mg/l, 5 °C, 12 days)
12 cm^2: Area of leaf (0.0001 mg/l, 3 °C, 6 days) | Area of leaf (0.001 mg/l, 3 °C, 6 days) | Area of leaf (0.01 mg/l, 3 °C, 6 days)
11.7 cm^2: Area of leaf (0.0001 mg/l, 2 °C, 6 days)
3.7 g: Weight of root (0.001 mg/l, 5 °C, 12 days)
7.8 cm: Height (0.0001 mg/l, 5 °C, 12 days) | Height (0.001 mg/l, 5 °C, 6 days)
13.5 cm^2: Area of leaf (0.001 mg/l, 4 °C, 12 days)
10.2 cm^2: Area of leaf (0.0001 mg/l, 2 °C, 3 days)
17 cm^2: Area of leaf (0.001 mg/l, 5 °C, 12 days)
7 cm: Height (0.001 mg/l, 3 °C, 3 days) | Height (0.01 mg/l, 3 °C, 3 days)
13.2 cm^2: Area of leaf (0.0001 mg/l, 3 °C, 12 days) | Area of leaf (0.001 mg/l, 3 °C, 12 days)
3.4 g: Weight of root (0.001 mg/l, 1 °C, 9 days) | Weight of root (0.01 mg/l, 1 °C, 9 days)
13.1 cm^2: Area of leaf (0.001 mg/l, 2 °C, 12 days) | Area of leaf (0.001 mg/l, 4 °C, 9 days)
11.2 cm^2: Area of leaf (0.0001 mg/l, 1 °C, 6 days)
13.6 cm^2: Area of leaf (0.0001 mg/l, 5 °C, 9 days) | Area of leaf (0.01 mg/l, 1 °C, 12 days)
11.9 cm^2: Area of leaf (0.01 mg/l, 1 °C, 6 days)
7.4 cm: Height (0.0001 mg/l, 1 °C, 9 days) | Height (0.0001 mg/l, 1 °C, 12 days) | Height (0.001 mg/l, 3 °C, 9 days) | Height (0.001 mg/l, 3 °C, 12 days) | Height (0.01 mg/l, 1 °C, 12 days)
13 cm^2: Area of leaf (0.0001 mg/l, 1 °C, 12 days) | Area of leaf (0.0001 mg/l, 2 °C, 12 days) | Area of leaf (0.0001 mg/l, 4 °C, 9 days) | Area of leaf (0.001 mg/l, 1 °C, 12 days)
7.9 cm: Height (0.001 mg/l, 5 °C, 9 days)
3.9 g: Weight of root (0.0001 mg/l, 1 °C, 12 days) | Weight of root (0.0001 mg/l, 2 °C, 12 days) | Weight of root (0.001 mg/l, 1 °C, 12 days) | Weight of root (0.001 mg/l, 2 °C, 12 days) | Weight of root (0.01 mg/l, 1 °C, 12 days)
7.0 cm: Height (0.01 mg/l, 1 °C, 3 days) | Height (0.01 mg/l, 2 °C, 3 days)
2.9 g: Weight of root (0.0001 mg/l, 3 °C, 9 days) | Weight of root (0.0001 mg/l, 3 °C, 12 days) | Weight of root (0.0001 mg/l, 4 °C, 12 days) | Weight of root (0.0001 mg/l, 5 °C, 9 days) | Weight of root (0.001 mg/l, 3 °C, 9 days) | Weight of root (0.001 mg/l, 3 °C, 12 days) | Weight of root (0.001 mg/l, 4 °C, 9 days) | Weight of root (0.001 mg/l, 4 °C, 12 days)
6.9 cm: Height (0.001 mg/l, 1 °C, 3 days) | Height (0.001 mg/l, 2 °C, 3 days)
7.3 cm: Height (0.0001 mg/l, 2 °C, 9 days) | Height (0.0001 mg/l, 4 °C, 6 days) | Height (0.001 mg/l, 1 °C, 9 days) | Height (0.001 mg/l, 1 °C, 12 days) | Height (0.001 mg/l, 2 °C, 12 days) | Height (0.001 mg/l, 4 °C, 6 days) | Height (0.01 mg/l, 1 °C, 9 days) | Height (0.01 mg/l, 2 °C, 9 days)
12.2 cm^2: Area of leaf (0.0001 mg/l, 4 °C, 6 days)
12.4 cm^2: Area of leaf (0.0001 mg/l, 1 °C, 9 days) | Area of leaf (0.001 mg/l, 4 °C, 6 days)
10.4 cm^2: Area of leaf (0.0001 mg/l, 3 °C, 3 days) | Area of leaf (0.001 mg/l, 3 °C, 3 days) | Area of leaf (0.01 mg/l, 3 °C, 3 days)
2.7 g: Weight of root (0.0001 mg/l, 5 °C, 6 days) | Weight of root (0.001 mg/l, 5 °C, 6 days)
8.2 cm: Height (0.001 mg/l, 5 °C, 12 days)
7.7 cm: Height (0.0001 mg/l, 4 °C, 12 days) | Height (0.001 mg/l, 4 °C, 12 days)
3.5 g: Weight of root (0.0001 mg/l, 1 °C, 9 days)
16 cm^2: Area of leaf (0.001 mg/l, 5 °C, 9 days)
7.6 cm: Height (0.0001 mg/l, 3 °C, 12 days)
3.0 g: Weight of root (0.0001 mg/l, 2 °C, 6 days) | Weight of root (0.0001 mg/l, 5 °C, 12 days) | Weight of root (0.001 mg/l, 2 °C, 6 days) | Weight of root (0.001 mg/l, 5 °C, 9 days) | Weight of root (0.01 mg/l, 1 °C, 6 days) | Weight of root (0.01 mg/l, 2 °C, 6 days)
2.6 g: Weight of root (0.0001 mg/l, 3 °C, 6 days) | Weight of root (0.0001 mg/l, 4 °C, 6 days) | Weight of root (0.0001 mg/l, 5 °C, 3 days) | Weight of root (0.001 mg/l, 3 °C, 6 days) | Weight of root (0.001 mg/l, 4 °C, 6 days) | Weight of root (0.01 mg/l, 3 °C, 6 days)
11.3 cm^2: Area of leaf (0.001 mg/l, 1 °C, 6 days)
10.7 cm^2: Area of leaf (0.001 mg/l, 5 °C, 3 days)
3.2 g: Weight of root (0.0001 mg/l, 2 °C, 9 days) | Weight of root (0.001 mg/l, 2 °C, 9 days) | Weight of root (0.01 mg/l, 2 °C, 12 days)
10.3 cm^2: Area of leaf (0.001 mg/l, 2 °C, 3 days)
7.5 cm: Height (0.0001 mg/l, 2 °C, 12 days) | Height (0.0001 mg/l, 3 °C, 9 days) | Height (0.0001 mg/l, 4 °C, 9 days) | Height (0.0001 mg/l, 5 °C, 6 days) | Height (0.0001 mg/l, 5 °C, 9 days) | Height (0.001 mg/l, 4 °C, 9 days) | Height (0.001 mg/l, 5 °C, 3 days) | Height (0.01 mg/l, 2 °C, 12 days)
2.5 g: Weight of root (0.0001 mg/l, 3 °C, 3 days) | Weight of root (0.0001 mg/l, 4 °C, 3 days) | Weight of root (0.001 mg/l, 3 °C, 3 days) | Weight of root (0.001 mg/l, 4 °C, 3 days) | Weight of root (0.01 mg/l, 3 °C, 3 days)
2.8 g: Weight of root (0.0001 mg/l, 1 °C, 3 days) | Weight of root (0.0001 mg/l, 2 °C, 3 days) | Weight of root (0.0001 mg/l, 4 °C, 9 days) | Weight of root (0.001 mg/l, 1 °C, 3 days) | Weight of root (0.001 mg/l, 2 °C, 3 days) | Weight of root (0.001 mg/l, 5 °C, 3 days) | Weight of root (0.01 mg/l, 1 °C, 3 days) | Weight of root (0.01 mg/l, 2 °C, 3 days)
12.7 cm^2: Area of leaf (0.001 mg/l, 2 °C, 9 days)
12.6 cm^2: Area of leaf (0.0001 mg/l, 2 °C, 9 days) | Area of leaf (0.0001 mg/l, 3 °C, 9 days) | Area of leaf (0.001 mg/l, 1 °C, 9 days) | Area of leaf (0.001 mg/l, 3 °C, 9 days) | Area of leaf (0.01 mg/l, 3 °C, 9 days)
3: Number of leaf (0.0001 mg/l, 1 °C, 12 days) | Number of tiller (0.0001 mg/l, 1 °C, 12 days) | Number of leaf (0.0001 mg/l, 2 °C, 12 days) | Number of tiller (0.0001 mg/l, 2 °C, 12 days) | Number of leaf (0.0001 mg/l, 3 °C, 12 days) | Number of leaf (0.0001 mg/l, 4 °C, 12 days) | Number of leaf (0.0001 mg/l, 5 °C, 12 days) | Number of leaf (0.001 mg/l, 1 °C, 12 days) | Number of tiller (0.001 mg/l, 1 °C, 12 days) | Number of leaf (0.001 mg/l, 2 °C, 12 days) | Number of tiller (0.001 mg/l, 2 °C, 12 days) | Number of leaf (0.001 mg/l, 3 °C, 12 days) | Number of leaf (0.001 mg/l, 4 °C, 12 days) | Number of leaf (0.001 mg/l, 5 °C, 12 days) | Number of tiller (0.001 mg/l, 5 °C, 12 days) | Number of leaf (0.01 mg/l, 1 °C, 12 days) | Number of tiller (0.01 mg/l, 1 °C, 12 days) | Number of leaf (0.01 mg/l, 2 °C, 12 days) | Number of tiller (0.01 mg/l, 2 °C, 12 days)
13.4 cm^2: Area of leaf (0.0001 mg/l, 4 °C, 12 days) | Area of leaf (0.01 mg/l, 2 °C, 12 days)
7.1 cm: Height (0.0001 mg/l, 1 °C, 3 days) | Height (0.0001 mg/l, 2 °C, 3 days) | Height (0.0001 mg/l, 3 °C, 3 days) | Height (0.0001 mg/l, 4 °C, 3 days) | Height (0.001 mg/l, 1 °C, 6 days) | Height (0.001 mg/l, 2 °C, 6 days) | Height (0.001 mg/l, 3 °C, 6 days) | Height (0.001 mg/l, 4 °C, 3 days)
10.6 cm^2: Area of leaf (0.0001 mg/l, 4 °C, 3 days) | Area of leaf (0.0001 mg/l, 5 °C, 3 days) | Area of leaf (0.001 mg/l, 4 °C, 3 days) | Area of leaf (0.01 mg/l, 2 °C, 3 days)
14.6 cm^2: Area of leaf (0.001 mg/l, 5 °C, 6 days)
12.9 cm^2: Area of leaf (0.01 mg/l, 1 °C, 9 days)
7.2 cm: Height (0.0001 mg/l, 1 °C, 6 days) | Height (0.0001 mg/l, 2 °C, 6 days) | Height (0.0001 mg/l, 3 °C, 6 days) | Height (0.0001 mg/l, 5 °C, 3 days) | Height (0.001 mg/l, 2 °C, 9 days) | Height (0.01 mg/l, 1 °C, 6 days) | Height (0.01 mg/l, 2 °C, 6 days) | Height (0.01 mg/l, 3 °C, 6 days)
